Columns and labels:
[1] = test system: primary human dermal fibroblasts; test: Gene Writing efficiency (GFP flow cytometry / ddPCR) with BAY 11-7082; assay type: cell-based; conditions: addition of BAY11
Protocol: (§1) In this example, primary human dermal fibroblasts (ATCC PCS-201-012) are cultured according to ATCC instructions. Cells are nucleofected (Lonza Nucleofector®) with the following samples: • 1. mRNA encoding Gene Writer polypeptide targeting AAVS1+Gene Writer RNA template carrying a GFP reporter gene • 2. Condition (1) with genetically inactivated Gene Writer polypeptide • 3. Condition (1)+BAY 11-7082 • 4. Condition (1)+BAY 11-7082+IFN-beta
(§2) Gene Writing efficiency is measured from cultured cells 3 days after transfection by flow cytometry to assay the percentage of cells expressing GFP or by digital droplet PCR analysis with primers and probe on the junction between the template sequence and the targeted locus and on reference sequences as previously described (see PCT/US2019/048607). […] In some embodiments, the addition of BAY11 will increase one or both of the expression of the Gene Writer polypeptide, and the stability of the RNA template. In some embodiments, the addition of […] will also reduce cytotoxicity, e.g., cytotoxicity that is due to intracellular immune pathways.

[2] = test system: primary human dermal fibroblasts; test: Cytotoxicity (PrestoBlue) three days post transfection, Example 3; assay type: cell-based; conditions: addition of BAY11
Protocol: as §1, §2

human skin cells = conditions: cited from earlier work
mouse liver = test: LNP-mediated delivery of firefly luciferase mRNA to the mouse liver (luciferase activity of liver homogenate); assay type: in vivo; conditions: C57BL/6 mice, i.v. 1 mg/kg, 6, 24, 48 hours, FIG. 2
Protocol: To measure the effectiveness of LNP-mediated delivery of firefly luciferase containing particles to the liver, LNPs were formulated and characterized as described in Example 9 and tested in vitro prior (Example 10) to administration to mice. C57BL/6 male mice (Charles River Labs) at approximately 8 weeks of age were dosed with LNPs via intravenous (i.v.) route at 1 mg/kg. Vehicle control animals were dosed i.v. with 300 μL phosphate buffered saline. Mice were injected via intraperitoneal route with dexamethasone at 5 mg/kg 30 minutes prior to injection of LNPs. Tissues were collected at necropsy at or 6, 24, 48 hours after LNP administration with a group size of 5 mice per time point. Liver and other tissue samples were collected, snap-frozen in liquid nitrogen, and stored at −80° C. until analysis.
Frozen liver samples were pulverized on dry ice and transferred to homogenization tubes containing lysing matrix D beads (MP Biomedical). Ice-cold 1×luciferase cell culture lysis reagent (CCLR) (Promega) was added to each tube and the samples were homogenized in a Fast Prep-24 5G Homogenizer (MP Biomedical) at 6 m/s for 40 seconds. The samples were transferred to a clean microcentrifuge tube and clarified by centrifugation. Prior to luciferase activity assay, the protein concentration of liver homogenates was determined for each sample using the Pierce™ BCA Protein Assay Kit (ThermoFisher Scientific) according to the manufacturer's instructions. Luciferase activity was measured with 200 μg (total protein) of liver homogenate using the luciferase assay reagent (Promega) according to manufacturer's instructions using an i3X SpectraMax plate reader (Molecular Devices). […] Reporter activity by the various formulations followed the ranking LIPIDV005>LIPIDV004>LIPIDV003. RNA expression was transient and enzyme levels returned near vehicle background by 48 hours. Post-administration. This assay validated the use of these ionizable lipids and their respective formulations for RNA systems for delivery to the liver.

Compound	Expression of the Gene Writer polypeptide and/or stability of the RNA template [1]	Cytotoxicity due to intracellular immune pathways [2]	Expression of OCT4 from synthetic mRNA (human skin cells)	Reporter (luciferase) activity in liver, ranking of formulations (mouse liver)
Cc1ccc(S(=O)(=O)/C=C/C#N)cc1 [BAY11, BAY 11-7082]	increase	reduce	improve	–
CCCCC/C=C\C/C=C\CCCCCCCC(=O)OCC(COC(=O)CCC(OCCCCCCCC)OCCCCCCCC)COC(=O)OCCCN(CC)CC (stereo not drawn) [LIPIDV003]	–	–	–	LIPIDV005>LIPIDV004>LIPIDV003
CCCCCCCCCOC(=O)CCCCCCCN(CCO)CCCCCCCC(=O)OC(CCCCCCCC)CCCCCCCC [LIPIDV004]	–	–	–	LIPIDV005>LIPIDV004>LIPIDV003
CCCCCCCC(=O)N(CCCN(C)C)C(CCCCCCCCC(=O)OC(CCCCCC)CCCCCC)CCCCCCCCC(=O)OC(CCCCCC)CCCCCC [LIPIDV005]	–	–	–	LIPIDV005>LIPIDV004>LIPIDV003
